From ChEMBL document CHEMBL1201862, “PubChem BioAssay data set” (2004)
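Assay format: 96-well plates, 48-hour exposure. Abbreviation: GI50, concentration required for 50% inhibition of growth.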 Activity calls are given as the source filed them. No stated cut-off is given here; in the data, active = GI50 up to about 1.1 µM and inactive = higher.

Columns and labels:
Assay in all cases: DTP human tumour cell line panel, 48 h
[1] = test system: HOP-62
[2] = test system: OVCAR-4
[3] = test system: RPMI-8226
[4] = test system: CAKI-1
[5] = test system: RXF 631
[6] = test system: A498
[7] = test system: OVCAR-3
[8] = test system: SF-295
[9] = test system: SNB-78
[10] = test system: MOLT-4
[11] = test system: EKVX
[12] = test system: K562
[13] = test system: SW-620
[14] = test system: COLO 205
[15] = test system: SF-539
[16] = test system: OVCAR-5
[17] = test system: M19-MEL
[18] = test system: SK-OV-3
[19] = test system: SNB-19
[20] = test system: TK-10
[21] = test system: IGROV-1
[22] = test system: M14
[23] = test system: HCT-116
[24] = test system: HL-60
[25] = test system: RXF 393
[26] = test system: XF498
[27] = test system: A549
[28] = test system: SK-MEL-28
[29] = test system: NCI-H460
[30] = test system: SF-268
[31] = test system: DLD-1
[32] = test system: HT-29
[33] = test system: HCT-15
[34] = test system: SK-MEL-5
[35] = test system: OVCAR-8
[36] = test system: NCI-H23
[37] = test system: CCRF-CEM
[38] = test system: HOP-92
[39] = test system: DMS-273
[40] = test system: U-251
[41] = test system: LXFL 529
[42] = test system: DMS-114
[43] = test system: SK-MEL-2
[44] = test system: SN12C
[45] = test system: UACC-62
[46] = test system: KM-20L2
[47] = test system: UO-31
[48] = test system: ACHN
[49] = test system: 786-0
[50] = test system: HOP-18
[51] = test system: UACC-257
[52] = test system: SNB-75
[53] = test system: Malme-3M
[54] = test system: SR
[55] = test system: HCC 2998
[56] = test system: KM12
[57] = test system: LOX IMVI
[58] = test system: NCI-H226
[59] = test system: NCI-H522

With `COc1cccc(C2N3CCCCC3[C@@H]3c4[nH]c5ccccc5c4CCN23)c1OC` (some centres not stated) the GI50 [1] was 15.9 µM (inactive), the GI50 [2] was 17.7 µM (inactive) and the GI50 [3] was 18.7 µM (inactive). For the same compound, the GI50 [4] was 16.2 µM (inactive), the GI50 [5] was 16.4 µM (inactive) and the GI50 [6] was 11.4 µM (inactive). For the same compound, the GI50 [7] was 13.1 µM (inactive), the GI50 [8] was 17.6 µM (inactive) and the GI50 [9] was 15.7 µM (inactive). For the same compound, the GI50 [10] was 17.5 µM (inactive), the GI50 [11] was 17.9 µM (inactive) and the GI50 [12] was 14.7 µM (inactive). For the same compound, the GI50 [13] was 17.3 µM (inactive), the GI50 [14] was 15.2 µM (inactive) and the GI50 [15] was 15 µM (inactive). For the same compound, the GI50 [16] was 15.9 µM (inactive), the GI50 [17] was 15.9 µM (inactive) and the GI50 [18] was 17.5 µM (inactive). For the same compound, the GI50 [19] was 11.9 µM (inactive), the GI50 [20] was 19.3 µM (inactive) and the GI50 [21] was 18.2 µM (inactive). For the same compound, the GI50 [22] was 16.1 µM (inactive), the GI50 [23] was 17.3 µM (inactive) and the GI50 [24] was 15.1 µM (inactive). For the same compound, the GI50 [25] was 13.4 µM (inactive), the GI50 [26] was 15.2 µM (inactive) and the GI50 [27] was 15.8 µM (inactive). For the same compound, the GI50 [28] was 16.8 µM (inactive), the GI50 [29] was 19.2 µM (inactive) and the GI50 [30] was 11.5 µM (inactive). The GI50 [31] was 16.9 µM (inactive), the GI50 [32] was 12.9 µM (inactive) and the GI50 [33] was 17.1 µM. The GI50 [34] was 15.8 µM (inactive), the GI50 [35] was 16.5 µM (inactive) and the GI50 [36] was 16.9 µM (inactive). For the same compound, the GI50 [37] was 17.3 µM (inactive), the GI50 [38] was 15.7 µM (inactive) and the GI50 [39] was 16 µM (inactive). The GI50 [40] was 17.2 µM (inactive), the GI50 [41] was 15.2 µM (inactive) and the GI50 [42] was 15.5 µM (inactive). The GI50 [43] was 14.5 µM (inactive), the GI50 [44] was 16.9 µM (inactive) and the GI50 [45] was 11.6 µM (inactive). For the same compound, the GI50 [46] was 14.3 µM (inactive), the GI50 [47] was 14.9 µM (inactive) and the GI50 [48] was 15.2 µM (inactive). The GI50 [49] was 18.3 µM (inactive), the GI50 [50] was 17 µM (inactive) and the GI50 [51] was 15.9 µM (inactive).
In the case of `CCCSS[C@H]1NC(=O)[C@H]1NC(=O)COc1ccccc1`, the GI50 [1] is reported as > 100 µM (inactive), the GI50 [2] is reported as 17.3 µM (inactive) and the GI50 [3] is reported as 14 µM (inactive). The GI50 [4] was 17.3 µM (inactive), the GI50 [5] was 17.5 µM (inactive) and the GI50 [6] was 24.8 µM (inactive). The GI50 [7] was 17.3 µM (inactive), the GI50 [8] was 41.9 µM (inactive) and the GI50 [9] was 25.8 µM (inactive). The GI50 [10] was 1.28 µM (inactive), the GI50 [11] was 20.6 µM (inactive) and the GI50 [12] was 6.19 µM (inactive). The GI50 [13] was 5.74 µM (inactive), the GI50 [14] was 12.3 µM (inactive) and the GI50 [15] was 15.3 µM (inactive). The GI50 [16] was 59 µM (inactive), the GI50 [17] was 17.9 µM (inactive) and the GI50 [18] was > 100 µM (inactive). The GI50 [19] was > 100 µM (inactive), the GI50 [20] was 27.9 µM (inactive) and the GI50 [21] was 21.1 µM (inactive). For the same compound, the GI50 [22] was 12 µM (inactive), the GI50 [23] was 10.3 µM (inactive) and the GI50 [24] was 2.6 µM (inactive). For the same compound, the GI50 [25] was 16.1 µM (inactive), the GI50 [52] was 21.1 µM (inactive) and the GI50 [26] was 17.8 µM (inactive). For the same compound, the GI50 [27] was 24.4 µM (inactive), the GI50 [28] was 16.6 µM (inactive) and the GI50 [53] was 13.8 µM (inactive). For the same compound, the GI50 [29] was 17.6 µM (inactive), the GI50 [30] was 20 µM (inactive) and the GI50 [31] was 11.1 µM (inactive). The GI50 [54] was 3.16 µM (inactive), the GI50 [32] was 19.8 µM (inactive) and the GI50 [33] was 11.7 µM. The GI50 [34] was 22.8 µM (inactive), the GI50 [35] was 13.9 µM (inactive) and the GI50 [36] was 17.7 µM (inactive). The GI50 [37] was 3.85 µM (inactive), the GI50 [38] was 10.4 µM (inactive) and the GI50 [55] was 15.5 µM (inactive). For the same compound, the GI50 [39] was 17.4 µM (inactive), the GI50 [40] was 17.7 µM (inactive) and the GI50 [41] was 5.66 µM (inactive). For the same compound, the GI50 [56] was 17.2 µM (inactive), the GI50 [42] was 19 µM (inactive) and the GI50 [43] was 17.9 µM (inactive). For the same compound, the GI50 [44] was 15.1 µM (inactive), the GI50 [45] was 17.9 µM (inactive) and the GI50 [57] was 16.4 µM (inactive). For the same compound, the GI50 [46] was 20.9 µM (inactive), the GI50 [47] was 32.5 µM (inactive) and the GI50 [48] was 16.6 µM (inactive). The GI50 [49] was 17.4 µM (inactive), the GI50 [50] was 28 µM (inactive) and the GI50 [51] was 14.4 µM (inactive).
`CCCCCCCCCCCCCC(=O)O[C@H]1CC[C@H](NC(=O)[C@H](OC)[C@H](O)[C@@H](O)[C@H](O)/C=C/C(C)C)C(=O)N(C)C1` [BENGAMIDE B] was tested, and the GI50 [1] was 0.00809 µM (active), the GI50 [2] was 0.014 µM (active) and the GI50 [3] was 0.0895 µM (active). For the same compound, the GI50 [4] was 0.0216 µM (active), the GI50 [5] was < 0.0015 µM (active) and the GI50 [6] was > 15 µM (inactive). For the same compound, the GI50 [7] was 0.00643 µM (active), the GI50 [8] was 0.00675 µM (active) and the GI50 [9] was 0.173 µM (active). For the same compound, the GI50 [10] was 0.00643 µM (active), the GI50 [11] was 1.08 µM (active) and the GI50 [12] was 0.00811 µM (active). The GI50 [13] was 0.00433 µM (active), the GI50 [14] was 0.00259 µM (active) and the GI50 [15] was 0.0108 µM (active). The GI50 [16] was 4.65 µM (inactive), the GI50 [17] was 0.00611 µM (active) and the GI50 [18] was 0.0721 µM (active). The GI50 [19] was 0.008 µM (active), the GI50 [20] was 0.179 µM (active) and the GI50 [21] was 0.00235 µM (active). The GI50 [22] was 0.0128 µM (active), the GI50 [58] was 0.00592 µM (active) and the GI50 [23] was 0.00247 µM (active). The GI50 [24] was 0.01 µM (active), the GI50 [25] was 0.0615 µM (active) and the GI50 [52] was 0.105 µM (active). The GI50 [26] was 0.0164 µM (active), the GI50 [27] was < 0.0015 µM (active) and the GI50 [28] was 0.0113 µM (active). For the same compound, the GI50 [53] was 0.0362 µM (active), the GI50 [29] was < 0.0015 µM (active) and the GI50 [30] was 0.0036 µM (active). The GI50 [31] was 0.00705 µM (active), the GI50 [59] was 0.00577 µM (active) and the GI50 [54] was 0.0021 µM (active). The GI50 [32] was 0.00479 µM (active), the GI50 [33] was 0.028 µM and the GI50 [34] was 0.0199 µM (active). For the same compound, the GI50 [35] was 0.00782 µM (active), the GI50 [36] was 0.00977 µM (active) and the GI50 [37] was 0.0122 µM (active). The GI50 [38] was 0.00684 µM (active), the GI50 [55] was 0.00195 µM (active) and the GI50 [39] was < 0.0015 µM (active). For the same compound, the GI50 [40] was 0.00286 µM (active), the GI50 [41] was 0.0114 µM (active) and the GI50 [56] was 0.00418 µM (active). For the same compound, the GI50 [42] was 0.00284 µM (active), the GI50 [43] was 0.0334 µM (active) and the GI50 [44] was 0.00419 µM (active). For the same compound, the GI50 [45] was 0.00807 µM (active), the GI50 [57] was 0.00216 µM (active) and the GI50 [46] was 0.00577 µM (active). For the same compound, the GI50 [47] was 0.0208 µM (active), the GI50 [48] was 0.00261 µM (active) and the GI50 [49] was 0.00457 µM (active). For the same compound, the GI50 [50] was 0.134 µM (active) and the GI50 [51] was 0.0331 µM (active).
